Experimental data taken from patent publication US7235679B2, “Crystals of a vitamin D derivative and a method for the preparation thereof” (Chugai Seiyaku Kabushiki Kaisha, priority 1996, dated 2007).

Experiment: Stability test of ED-71: purity measurement using reverse phase HPLC
Assay type: physicochemical
Conditions: for Purity Measurement Using Reverse Phase HPLC, ED-71 peak / Purity Measurement Using Reverse Phase HPLC, Other peaks / Purity Measurement Using Reverse Phase HPLC, Pre Form peak: 265 nm
Procedure: Amorphous and crystalline ED-71 compounds were tested for stability at 10, 25 and […]. To estimate the stability, HPLC quantitative assay and absorbance and purity measurements were utilized. The purity was expressed as peak area ratio in percentage in HPLC (% P.A.R.). The test was carried out by using the following procedures:
About 2 mg portions of each of the amorphous and crystalline samples are precisely weighed into transparent 10 ml test tubes each having screw cap, individually.
The test tubes are purged with argon using a vacuum desiccator and a glove box. This purging procedure is not applied to the test tubes indicated as “1 M (air)” in the tables below.
The test tubes in groups are fixed in thermostatic baths which are respectively controlled at the above temperatures and allowed to stand in the dark. After one (1 W) or two (2 W) weeks or one month (1 M), the test tubes are removed from the baths and subjected to the following assay and measurements:
HPLC is carried out using 25 μl of the sample solution as prepared in “HPLC quantitative assay” above. • HPLC conditions used: • Column: Inertsil ODS-2 (5×250 mm) • Mobile phase: acetonitrile/water mixture (55/45) • Flow rate: 1 ml/min • Detection: at UV 265 and 220 nm.

220 nm (%), Other peaks (10° C., time 0): 4.70%
220 nm (%), Pre Form peak (10° C., time 0): 1.37%
220 nm (%), ED-71 peak (25° C., 1 W, argon, dark): 93.37%
220 nm (%), Other peaks (25° C., 1 W, argon, dark): 5.13%
220 nm (%), Pre Form peak (25° C., 1 W, argon, dark): 1.50%
220 nm (%), ED-71 peak (25° C., 2 W, argon, dark): 92.39%
220 nm (%), Other peaks (25° C., 2 W, argon, dark): 5.68%
220 nm (%), Pre Form peak (25° C., 2 W, argon, dark): 1.93%
220 nm (%), ED-71 peak (25° C., time 0): 93.95%
220 nm (%), Other peaks (25° C., time 0): 4.70%
220 nm (%), Pre Form peak (25° C., time 0): 1.37%
220 nm (%), ED-71 peak (40° C., 1 W, argon, dark): 90.00%
220 nm (%), Other peaks (40° C., 1 W, argon, dark): 7.71%
220 nm (%), Pre Form peak (40° C., 1 W, argon, dark): 2.29%
220 nm (%), ED-71 peak (40° C., 2 W, argon, dark): 87.40%
220 nm (%), Other peaks (40° C., 2 W, argon, dark): 9.72%
220 nm (%), Pre Form peak (40° C., 2 W, argon, dark): 2.88%
220 nm (%), ED-71 peak (40° C., time 0): 93.95%
220 nm (%), Other peaks (40° C., time 0): 4.70%
220 nm (%), Pre Form peak (40° C., time 0): 1.37%
Purity Measurement Using Reverse Phase HPLC, ED-71 peak (10° C., 1 M (air), dark): 94.11 % P.A.R
Purity Measurement Using Reverse Phase HPLC, Other peaks (10° C., 1 M (air), dark): 4.07 % P.A.R
Purity Measurement Using Reverse Phase HPLC, Pre Form peak (10° C., 1 M (air), dark): 1.82 % P.A.R
Purity Measurement Using Reverse Phase HPLC, ED-71 peak (10° C., 1 M, argon, dark): 93.05 % P.A.R
Purity Measurement Using Reverse Phase HPLC, Other peaks (10° C., 1 M, argon, dark): 5.07 % P.A.R
Purity Measurement Using Reverse Phase HPLC, Pre Form peak (10° C., 1 M, argon, dark): 1.88 % P.A.R
Purity Measurement Using Reverse Phase HPLC, ED-71 peak (10° C., 2 W, argon, dark): 94.48 % P.A.R
Purity Measurement Using Reverse Phase HPLC, Other peaks (10° C., 2 W, argon, dark): 3.77 % P.A.R
Purity Measurement Using Reverse Phase HPLC, Pre Form peak (10° C., 2 W, argon, dark): 1.75 % P.A.R
Purity Measurement Using Reverse Phase HPLC, ED-71 peak (10° C., time 0): 95.38 % P.A.R
Purity Measurement Using Reverse Phase HPLC, Other peaks (10° C., time 0): 3.47 % P.A.R
Purity Measurement Using Reverse Phase HPLC, Pre Form peak (10° C., time 0): 1.16 % P.A.R
Purity Measurement Using Reverse Phase HPLC, ED-71 peak (25° C., 1 W, argon, dark): 94.78 % P.A.R
Purity Measurement Using Reverse Phase HPLC, Other peaks (25° C., 1 W, argon, dark): 3.95 % P.A.R
Purity Measurement Using Reverse Phase HPLC, Pre Form peak (25° C., 1 W, argon, dark): 1.27 % P.A.R
Purity Measurement Using Reverse Phase HPLC, ED-71 peak (25° C., 2 W, argon, dark): 94.20 % P.A.R
Purity Measurement Using Reverse Phase HPLC, Other peaks (25° C., 2 W, argon, dark): 4.08 % P.A.R
Purity Measurement Using Reverse Phase HPLC, Pre Form peak (25° C., 2 W, argon, dark): 1.72 % P.A.R
Purity Measurement Using Reverse Phase HPLC, ED-71 peak (25° C., time 0): 95.38 % P.A.R
Purity Measurement Using Reverse Phase HPLC, Other peaks (25° C., time 0): 3.47 % P.A.R
Purity Measurement Using Reverse Phase HPLC, Pre Form peak (25° C., time 0): 1.16 % P.A.R
Purity Measurement Using Reverse Phase HPLC, ED-71 peak (40° C., 1 W, argon, dark): 92.47 % P.A.R
Purity Measurement Using Reverse Phase HPLC, Other peaks (40° C., 1 W, argon, dark): 5.55 % P.A.R
Purity Measurement Using Reverse Phase HPLC, Pre Form peak (40° C., 1 W, argon, dark): 1.98 % P.A.R
Purity Measurement Using Reverse Phase HPLC, ED-71 peak (40° C., 2 W, argon, dark): 90.68 % P.A.R
Purity Measurement Using Reverse Phase HPLC, Other peaks (40° C., 2 W, argon, dark): 6.78 % P.A.R
Purity Measurement Using Reverse Phase HPLC, Pre Form peak (40° C., 2 W, argon, dark): 2.53 % P.A.R
Purity Measurement Using Reverse Phase HPLC, ED-71 peak (40° C., time 0): 95.38 % P.A.R
Purity Measurement Using Reverse Phase HPLC, Other peaks (40° C., time 0): 3.47 % P.A.R
Purity Measurement Using Reverse Phase HPLC, Pre Form peak (40° C., time 0): 1.16 % P.A.R
Structure (SMILES): C=C1/C(=C\C=C2/CCC[C@@]3(C)C2CC[C@@H]3[C@H](C)CCCC(C)(C)O)C[C@@H](O)[C@@H](OCCCO)[C@@H]1O (stereo partly drawn) [Amor., 1α,25-dihydroxy-2β-(3-hydroxypropoxy)vitamin D3]
